SMILES strings stand for the structures.

Holding throughout (assay type): in vivo
Assay [1] deals with AMAPA. The experiment in a line: Post-emergence biological efficacy. As to conditions: Amaranthus palmeri, 312 h, evaluated after 13 days, read-out: damage to plant (100=total damage to plant; 0=no damage to plant). Here is the method:
(§1) Seeds of weeds and/or crops were sown in standard soil in pots. After cultivation for 14 days under controlled conditions in a glasshouse (at 24/19° C., day/night; 16 hours light), the plants were sprayed with an aqueous spray solution derived from the formulation of the technical active ingredient in a small amount of acetone and a special solvent and emulsifier mixture referred to as IF50 (11.12% Emulsogen EL360 TM+44.44% N-methylpyrrolidone+44.44% Dowanol DPM glycol ether), to create a 50g/l solution which was then diluted using 0.2% Genapol XO80 as diluent to give the desired final dose of test compound.
(§2) The test plants were then grown under controlled conditions in the glasshouse (at 24/18° C., day/night; 15 hours light; 50% humidity)and watered twice daily. After 13 days the test was evaluated (100=total damage to plant; 0=no damage to plant).

The next assay deals with ELEIN. The experiment in a line: Post-emergence biological efficacy. As to conditions: 312 h, evaluated after 13 days, read-out: damage to plant (100=total damage to plant; 0=no damage to plant). The protocol:
as §1, §2

The test system of assay [2] is ECHCG. The experiment in a line: Post-emergence biological efficacy. As to conditions: Echinochloa crus-galli, 312 h, evaluated after 13 days, read-out: damage to plant (100=total damage to plant; 0=no damage to plant). Here is the method: as §1, §2
For another assay, the system named is CHEAL. The experiment in a line: Post-emergence biological efficacy. The note with it: Chenopodium album, 312 h, evaluated after 13 days, read-out: damage to plant (100=total damage to plant; 0=no damage to plant). Here is the method: as §1, §2
In assay [3] the test system is EPHHL. The experiment in a line: Post-emergence biological efficacy. The note with it: Euphorbia heterophylla, 312 h, evaluated after 13 days, read-out: damage to plant (100=total damage to plant; 0=no damage to plant). The protocol: as §1, §2
Assay [4] relates to IPOHE. The experiment in a line: Post-emergence biological efficacy. As to conditions: Ipomoea hederacea, 312 h, evaluated after 13 days, read-out: damage to plant (100=total damage to plant; 0=no damage to plant). The protocol: as §1, §2
The subject of assay [5] is SETFA. The experiment in a line: Post-emergence biological efficacy. The note with it: Setaria faberi, 312 h, evaluated after 13 days, read-out: damage to plant (100=total damage to plant; 0=no damage to plant). The protocol: as §1, §2
The subject of a further assay is DIGSA. The experiment in a line: Post-emergence biological efficacy. As to conditions: Digitaria sanguinalis, 312 h, evaluated after 13 days, read-out: damage to plant (100=total damage to plant; 0=no damage to plant). Here is the method: as §1, §2
Assay [6] relates to LOLPE. The experiment in a line: Post-emergence biological efficacy. The note with it: Lolium perenne, 312 h, evaluated after 13 days, read-out: damage to plant (100=total damage to plant; 0=no damage to plant). The protocol: as §1, §2
Assay [7] relates to AMAPA. The experiment in a line: Pre-emergence biological efficacy. As to conditions: Amaranthus palmeri, 312 h, evaluated after 13 days, read-out: damage to plant (100=total damage to plant; 0=no damage to plant). Here is the method:
as §1, with “one day” for “14 days”
(§3) The test plants were then grown under controlled conditions in the glasshouse (at 24/18° C., day/night; 15 hours light; 50% humidity) and watered twice daily. After 13 days the test was evaluated (100=total damage to plant; 0=no damage to plant).

The subject of assay [8] is ECHCG. The experiment in a line: Pre-emergence biological efficacy. The note with it: Echinochloa crus-galli, 312 h, evaluated after 13 days, read-out: damage to plant (100=total damage to plant; 0=no damage to plant). The protocol: as §1, with “one day” for “14 days”
as §3

The subject of assay [9] is EPHHL. The experiment in a line: Pre-emergence biological efficacy. The note with it: Euphorbia heterophylla, 312 h, evaluated after 13 days, read-out: damage to plant (100=total damage to plant; 0=no damage to plant). The protocol:
as §1, with “one day” for “14 days”
as §3

In assay [10] the test system is IPOHE. The experiment in a line: Pre-emergence biological efficacy. As to conditions: Ipomoea hederacea, 312 h, evaluated after 13 days, read-out: damage to plant (100=total damage to plant; 0=no damage to plant). The protocol:
as §1, with “one day” for “14 days”
as §3

The test system of assay [11] is SETFA. The experiment in a line: Pre-emergence biological efficacy. The note with it: Setaria faberi, 312 h, evaluated after 13 days, read-out: damage to plant (100=total damage to plant; 0=no damage to plant). Here is the method:
as §1, with “one day” for “14 days”
as §3

Assay [12] relates to LOLPE. The experiment in a line: Pre-emergence biological efficacy. The note with it: Lolium perenne, 312 h, evaluated after 13 days, read-out: damage to plant (100=total damage to plant; 0=no damage to plant). The protocol: as §1, with “one day” for “14 days”
as §3

On to `CC1(C(=O)O)CC(c2cc(-c3ncc(C(F)(F)F)cc3Cl)c(F)cc2Cl)=NO1` (stereo not drawn) [Compound 1-101, 3-[2-chloro-5-(3-chloro-5-trifluoromethyl-2-pyridyl)-4-fluoro-phenyl]-5-methyl-4H-isoxazole-5-carboxylic acid], for which the pest or weed control at 250 g/ha with AMAPA [1], with ELEIN, in the assay with ECHCG [2], in the assay on CHEAL, in the assay with EPHHL [3] and in the assay on IPOHE [4] was 100% in each case. In addition, the pest or weed control at 250 g/ha in the assay on SETFA [5], in the assay with DIGSA, in the assay on LOLPE [6], in the assay on AMAPA [7], in the assay on ECHCG [8] and in the assay with EPHHL [9] was 100% throughout. For the same compound, the pest or weed control at 250 g/ha amounted to 100% with IPOHE [10], 100% in the assay on SETFA [11] and 80% in the assay on LOLPE [12].
`CCOC(=O)C1(C)CC(c2cc(-c3ncc(C(F)(F)F)cc3Cl)c(F)cc2Cl)=NO1` (stereo not drawn) [Compound 1-103, Ethyl 3-[2-chloro-5-(3-chloro-5-trifluoromethyl-2-pyridyl)-4-fluoro-phenyl]-5-methyl-4H-isoxazole-5-carboxylate]: the pest or weed control at 250 g/ha with AMAPA [1], with ELEIN, in the assay on ECHCG [2], in the assay on CHEAL, in the assay with EPHHL [3] and with IPOHE [4] was 100% throughout. The pest or weed control at 250 g/ha with SETFA [5] came to 100%; in the assay on DIGSA, 100%; in the assay with LOLPE [6], 100%; with AMAPA [7], 100%; with ECHCG [8], 90%; in the assay with EPHHL [9] it was 100%. Besides, the figures for the pest or weed control at 250 g/ha in the assay with IPOHE [10], in the assay on SETFA [11] and in the assay on LOLPE [12] were 100%, 80% and 80%, respectively.
For the compound `CCOC(=O)C1(C)CC(c2cc(-c3ncc(Cl)cc3Cl)c(F)cc2Cl)=NO1` (stereo not drawn) [Compound 1-115, Ethyl 3-[2-chloro-5-(3,5-dichloro-2-pyridyl)-4-fluoro-phenyl]-5-methyl-4H-isoxazole-5-carboxylate], the pest or weed control at 250 g/ha in the assay with AMAPA [1], in the assay with ELEIN, with ECHCG [2], in the assay on CHEAL, in the assay with EPHHL [3] and with IPOHE [4] was 100% in each case. The pest or weed control at 250 g/ha is 100% in the assay with SETFA [5]; 100% in the assay with DIGSA; 100% with LOLPE [6]; 100% in the assay on AMAPA [7]; 80% in the assay with ECHCG [8]; 100% in the assay on EPHHL [9]. Besides, the pest or weed control at 250 g/ha in the assay on IPOHE [10] amounted to 80%; in the assay with SETFA [11], 60%; in the assay with LOLPE [12] it was 50%.
Regarding `CCOC(=O)C1(C)CC(c2cc(-c3ncccc3Cl)c(F)cc2Cl)=NO1` (stereo not drawn) [Compound 1-127, Ethyl 3-[2-chloro-5-(3-chloro-2-pyridyl)-4-fluoro-phenyl]-5-methyl-4H-isoxazole-5-carboxylate], the pest or weed control at 250 g/ha in the assay with AMAPA [1] was 100%; in the assay on ELEIN, 30%; in the assay with ECHCG [2], 90%; in the assay with CHEAL, 100%; in the assay with EPHHL [3], 80%; with IPOHE [4], 100%. For the same compound, the pest or weed control at 250 g/ha with SETFA [5] is 100%; in the assay with DIGSA, 50%; in the assay on LOLPE [6], 10%; with AMAPA [7] it was 40%; in the assay with ECHCG [8], 50%; in the assay with EPHHL [9] it was 100%. In addition, the pest or weed control at 250 g/ha in the assay on IPOHE [10] amounted to 50%; in the assay with SETFA [11] it was 70%; with LOLPE [12], 20%.
As for `CCOC(=O)C1(C)CC(c2cc(-c3ccccn3)c(F)cc2Cl)=NO1` (stereo not drawn) [Compound 1-139, Ethyl 3-[2-chloro-4-fluoro-5-(2-pyridyl)phenyl]-5-methyl-4H-isoxazole-5-carboxylate], the pest or weed control at 250 g/ha in the assay on AMAPA [1] amounted to 0%; in the assay on ELEIN, 0%; with ECHCG [2], 0%; in the assay on CHEAL, 0%; with EPHHL [3], 10%; in the assay with IPOHE [4], 20%. Besides, the pest or weed control at 250 g/ha came out at 10% in the assay on SETFA [5]; 0% in the assay on DIGSA; 0% in the assay on LOLPE [6]; 0% in the assay with AMAPA [7]; 0% with ECHCG [8]; 0% in the assay on EPHHL [9]. Besides, the pest or weed control at 250 g/ha with IPOHE [10], in the assay with SETFA [11] and with LOLPE [12] was 0% each time.
For the compound `CCOC(=O)C1(C)CC(c2cc(-c3ncc(C)cc3Cl)c(F)cc2Cl)=NO1` (stereo not drawn) [Compound 1-175, Ethyl 3-[2-chloro-5-(3-chloro-5-methyl-2-pyridyl)-4-fluoro-phenyl]-5-methyl-4H-isoxazole-5-carboxylate], the pest or weed control at 250 g/ha with AMAPA [1] was 100%; with ELEIN, 70%; with ECHCG [2], 100%; in the assay on CHEAL it was 100%; with EPHHL [3], 100%; in the assay on IPOHE [4] it was 100%. Also, the pest or weed control at 250 g/ha in the assay on SETFA [5] came to 100%; in the assay with DIGSA, 70%; in the assay on LOLPE [6], 90%; in the assay with AMAPA [7] it was 30%; with ECHCG [8], 60%; with EPHHL [9], 60%. For the same compound, the values for the pest or weed control at 250 g/ha in the assay with IPOHE [10], with SETFA [11] and in the assay on LOLPE [12] were 50%, 80% and 20%, respectively.
Turning to `CCOC(=O)C1(C)CC(c2cc(-c3cc(Cl)cnc3F)c(F)cc2Cl)=NO1` (stereo not drawn) [Compound 1-199, Ethyl 3-[2-chloro-5-(5-chloro-2-fluoro-3-pyridyl)-4-fluoro-phenyl]-5-methyl-4H-isoxazole-5-carboxylate], the pest or weed control at 250 g/ha in the assay on AMAPA [1] turned out to be 100%; in the assay on ELEIN, 20%; in the assay on ECHCG [2], 70%; with CHEAL, 90%; in the assay with EPHHL [3], 90%; in the assay with IPOHE [4] it was 100%. For the same compound, the pest or weed control at 250 g/ha was found to be 60% in the assay on SETFA [5]; 50% in the assay on DIGSA; 40% in the assay with LOLPE [6]; 80% with AMAPA [7]; 0% with ECHCG [8]; 30% with EPHHL [9]. For the same compound, the values for the pest or weed control at 250 g/ha in the assay with IPOHE [10], in the assay on SETFA [11] and with LOLPE [12] were 0%, 10% and 10%, respectively.

(Values after patent US20240124432A1, “HERBICIDAL COMPOUNDS” (SYNGENTA CROP PROTECTION AG, priority 2020, published 2024).)
